According to patent US20120101284A1, “METHOD FOR SCREENING INHIBITOR FOR INHIBITING INTERACTION BETWEEN BETA-AMYLOID PEPTIDE AND VEGF AND INHIBITOR SEARCHED BY THE SAME” (INNOPHARMASCREEN INC., priority 2009, published 2012):
Each block holds one molecule with its values, some of them ahead of it.

What was measured:
SH-SY5Y cell [1] = test system: SH-SY5Y cell
Excerpt: PC12 Cell (Korean Cell Line Bank, Seoul, Korea) was maintained in the mixed solution of RPMI1640 (Welgene, Daegu, Korea) containing 1× Antibiotic-Antimycotic (GIBCO, N.Y., USA) and 10% FBS (Fetal Bovine Serum) (Welgene, Daegu, Korea). SH-SY5Y cell (Korean Cell Line Bank, Seoul, Korea) was maintained in the mixed solution of DMED/F12 (Welgene, Daegu, Korea) containing 1× Antibiotic-Antimycotic (GIBCO, N.Y., USA) and 10% FBS (Fetal Bovine Serum) (Welgene, Daegu, Korea). The PC12 and SH-SY5Y culture cells were maintained under the conditions of 100% humidity and 37° C. in the environment for supplying gas components with further 5% carbon dioxide.
It was performed according to a MTT [(3-(4,5-dimethylthiazol-2yl-2,5-diphenyl-2H-tetrazoilum bromide] experiment protocol. MTT was dissolved in PBS to be 5 mg/ml and then stored at 4° C. to use. After completing the reaction, 10 μl of 5 mg/ml MTT solution was added to 100 culture mixed solution of each well and then reacted for 3 hours. The supernatant of each well was discarded, and then a chromophoric reactant (Formazancrystal) was dissolved in 100 μl of DMSO; and then an absorbance was measured using ELISA reader (595 nm).
The PC12 cells were added to each of wells of Poly-D-lysine-coated 96-well tissue culture plate (Corning, Mass., USA) to be the cell concentration of 2×10^4 per well. […]

SH-SY5Y cell [2] = assay: Inhibition of cytotoxicity of beta-amyloid by screened material (MTT assay); format: cell-based; conditions: standard of 10 μM beta-amyloid, at more than 5 μM, 24 hours
Procedure: The SH-SY5Y cells were added to 96-well tissue culture plate to be the cell concentration of 1×10^4 per well.

[3] = biological target: T1, binding between the beta-amyloid 1-42 peptide and VEGF165 (Homo sapiens, UniProt P15692); assay: Protein chip screening of inhibitors of the binding between beta-amyloid and VEGF165; conditions: first screening, VEGF165 50 μg/ml, single concentration
T1 construct: purchased R&D System, Inc. (VEGF165); Bachem AG (beta-amyloid)
T1 sequence (P15692 27-191 isoform P15692-4): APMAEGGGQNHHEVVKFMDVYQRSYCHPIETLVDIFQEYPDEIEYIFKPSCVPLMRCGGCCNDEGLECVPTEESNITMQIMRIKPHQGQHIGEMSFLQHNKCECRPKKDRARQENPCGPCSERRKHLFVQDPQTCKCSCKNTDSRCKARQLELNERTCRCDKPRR
Procedure: ProteoChip™ (Proteogen Inc., Seoul, Korea) was used as a substrate to fix a protein. A sheet paper was adhered on the substrate to prepare Well-Chip. A beta-amyloid (Bachem AG, Bubendorf, Switzerland) was diluted with a phosphate-buffered saline (PBS) containing 30% glycerol solution to be 50 μg/ml; then added to each well; reacted at 30° C. in a humidity incubator, overnight; the beta-amyloid remained after combining was washed with a phosphate-buffered saline containing 0.05% tween-20 (0.05% PBST); dried with a nitrogen gas; and then a high-speed-high throughput screening was performed.
A mixed solution was prepared by mixing VEGF165 (50 μg/ml) and 130 compounds (50 μM) derived from a natural material obtained in Example 1 in order to experiment the inhibition of the binding between the beta-amyloid and VEGF165. […]
The beta-amyloid-tagged protein chip prepared in Example 2 was blocked with 3% BSA for 2 hours; then washed with 0.05% PBST twice; and then dried with a nitrogen gas. […] It was washed with the washing solution; then dried using a nitrogen gas; a primary antibody was added to each of wells; then reacted at 30° C. in a humidity incubator for 30 minutes; washed with the washing solution; and then dried with the nitrogen gas to measure an inhibition ability of library by analyzing the binding degree with the relative fluorescence intensity using a fluorescence laser scanner. […]

Molecule: beta-amyloid 1-42: forward-synthesized beta-amyloid 1-42 peptide
survival rate of cell (SH-SY5Y cell [1]): decreased in proportion as the concentration increase

Molecule: NCCCS(=O)(=O)O [Alzhemed™]
survival rate of cell increased (SH-SY5Y cell [2]): about 30%

inhibition of the interaction between beta-amyloid 1-42 peptide and VEGF165 (relative fluorescence intensity) [3]: inhibited
Molecule: heparin
